For the experiment, the system named is HIV-1 (NL4-3) viral release in HeLa cells. The experiment can be described thus: HIV-1 viral release in HeLa cells transfected with NL4-3 (p24 antigen assay). As to conditions: HeLa cells expressing NL4-3. Type of experiment: cell-based. As to the method: HeLa cells at 50% confluency in P25 flasks were transiently transfected with 2-3 μg of one of the HIV-1 proviral constructs (pNL4-3; pNL4-3/Udel). One-tenth of the culture media was retrieved from each sample and filtered through a 0.22-μm syringe filter at each time point. Cells were collected at the end and subjected to whole-cell lysis by 1% SDS. The viral content in culture media and in cell lysates was determined by Coulter HIV-1 p24 Antigen Assay kit. Virus release was compared to that from the control (co-transfection of pNL4-3 and pCGI). Data are expressed as mean±SEM from 8 independent experiments.
For the inhibitory effects of K2P channel, different quantities (0.02-10 μM) of arachidonic acid (Sigma) were tested in HeLa cell culture at the 24th hour post-transfection of NL4-3, and one-tenth of the media was retrieved and filtered at each time point. Viral release was compared to that of the untreated HeLa cell set at 100% (control).
Referring to FIG. 3, the inhibitory effects of HIV-1 viral release in HeLa cells at the 4th hour after arachidonic acid (AA) supplementation were shown. […] Moreover, 50-60% of the release inhibition could be achieved by AA at 0.5×10^−7˜10^−6 M.

With `CCCCC/C=C\C/C=C\C/C=C\C/C=C\CCCC(=O)O` [AA, arachidonic acid], the “release inhibition (HIV-1 viral release)” value (4th hour after AA supplementation, AA at 0.5×10^−7˜10^−6 M, untreated HeLa cell set at 100%) was 50-60%. Besides, where the note is “submicromolar concentrations, 4th hour after supplementation”, the “suppression of viral release” value is on record as “could suppress viral release”.

The values above are taken from patent US20110054028A1, “SUPPLEMENT FOR REDUCING HIV TR[…] METHOD THEREOF” (priority 2009, published 2011).
